The assay can be described thus: absorption of moisturizing composition by the skin. The class given is in vivo. As to conditions: replacing 20% by weight of the avocado oil or apricot kernel oil in moisturizing compositions. The text has this: The triglyceride quaternary ammonium compounds of formula I in which R is C16 -C20 alkyl are valuable additives to a range of cosmetic and toiletry compositions. They are particularly useful in moisturizing compositions containing natural triglycerides which are not easily absorbed by the skin. Examples of such natural triglycerides are avocado oil and apricot kernel oil which are the major natural triglyceride oil components of certain commercially available moisturizing lotions and creams.

On to `CCCCCCCCCCCCCCCCCC[N+](C)(C)CC(=O)OC(CC=CCCCCCCCC(=O)OCC(COC(=O)CCCCCCCC=CCC(CCCCCC)OC(=O)C[N+](C)(C)CCCCCCCCCCCCCCCCCC)OC(=O)CCCCCCCC=CCC(CCCCCC)OC(=O)C[N+](C)(C)CCCCCCCCCCCCCCCCCC)CCCCCC` (stereo not shown) [Example 1, propane-1,2,3-tri[octadec-9-en-12-(oxycarbonyl-N-methylene-N,N-dimethyl-N-octadecylammonium chloride)oate]], for which the “improvement in the absorption of the composition by the skin” value was “significant improvement”.

For the origin of these results see patent US4857310A, “Triglyceride quaternary ammonium compounds, their preparation and use” (The Gillette Company, priority 1987, dated 1989).
